From US10351575B2, “Bicyclic urea, thiourea, guanidine and cyanoguanidine compounds useful for the treatment of pain” (Array BioPharma Inc., priority 2012, dated 2019)

Tests used:
Assay in all cases: KinaseProfiler off-target kinase profiling
Format in all cases: biochemical
Conditions in all cases: 10 μM, ATP near Km
GRK6 = GRK6 (Homo sapiens (Human), UniProt P43250)
How it was run: (§1)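 ATP was held near each kinase's Km while compound was present at 10 μM. Runs were done twice, and values are the average percent of control.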

MEK1 = MEK1 (Homo sapiens (Human), UniProt Q02750)
How it was run: as §1

MAPKAP-K2 = MAPKAP-K2 (Homo sapiens (Human), UniProt P49137)
How it was run: as §1

Flt3 = Flt3 (Homo sapiens (Human), UniProt P36888)
How it was run: as §1

CHK2 = CHK2 (Homo sapiens (Human), UniProt O96017)
How it was run: as §1

CDK3/cyclinE = CDK3/cyclinE (Homo sapiens (Human), UniProt Q00526)
How it was run: as §1

KDR = KDR (Homo sapiens (Human), UniProt P35968)
How it was run: as §1

PDK1 = PDK1 (Homo sapiens (Human), UniProt O15530)
How it was run: as §1

IKKbeta = IKKbeta (Homo sapiens (Human), UniProt O14920)
How it was run: as §1

CSK = CSK (Homo sapiens (Human), UniProt P41240)
How it was run: as §1

HIPK1 = HIPK1 (Homo sapiens (Human), UniProt Q86Z02)
How it was run: as §1

MLK1 = MLK1 (Homo sapiens (Human), UniProt P80192)
How it was run: as §1

VRK2 = VRK2 (Homo sapiens (Human), UniProt Q86Y07)
How it was run: as §1

DAPK2 = DAPK2 (Homo sapiens (Human), UniProt Q9UIK4)
How it was run: as §1

MINK = MINK (Homo sapiens (Human), UniProt Q8N4C8)
How it was run: as §1

TAO1 = TAO1 (Homo sapiens (Human), UniProt Q7L7X3)
How it was run: as §1

Ron = Ron (Homo sapiens (Human), UniProt Q04912)
How it was run: as §1

PKCalpha = PKCalpha (Homo sapiens (Human), UniProt P17252)
How it was run: as §1

EphA5 = EphA5 (Homo sapiens (Human), UniProt P54756)
How it was run: as §1

CK2alpha2 = CK2alpha2 (Homo sapiens (Human), UniProt P19784)
How it was run: as §1

Rse = Rse (Homo sapiens (Human), UniProt Q06418)
How it was run: as §1

MARK1 = MARK1 (Homo sapiens (Human), UniProt Q9P0L2)
How it was run: as §1

AKT3 = AKT3 (Homo sapiens (Human), UniProt Q9Y243)
How it was run: as §1

TrkB = TrkB (Homo sapiens (Human), UniProt Q16620)
How it was run: as §1

Pim-3 = Pim-3 (Homo sapiens (Human), UniProt Q86V86)
How it was run: as §1

IRR = IRR (Homo sapiens (Human), UniProt P14616)
How it was run: as §1

JNK3 = JNK3 (Homo sapiens (Human), UniProt P53779)
How it was run: as §1

LOK = LOK (Homo sapiens (Human), UniProt O94804)
How it was run: as §1

Fes = Fes (Homo sapiens (Human), UniProt P07332)
How it was run: as §1

PhKgamma2 = PhKgamma2 (Homo sapiens (Human), UniProt P15735)
How it was run: as §1

JAK3 = JAK3 (Homo sapiens (Human), UniProt P52333)
How it was run: as §1

SIK = SIK (Homo sapiens (Human), UniProt P57059)
How it was run: as §1

MSK2 = MSK2 (Homo sapiens (Human), UniProt O75676)
How it was run: as §1

EphA1 = EphA1 (Homo sapiens (Human), UniProt P21709)
How it was run: as §1

Abl2 = Abl2 (Homo sapiens (Human), UniProt P42684)
How it was run: as §1

CDK1/cyclinB = CDK1/cyclinB (Homo sapiens (Human), UniProt P06493)
How it was run: as §1

DYRK2 = DYRK2 (Homo sapiens (Human), UniProt Q92630)
How it was run: as §1

CK1delta = CK1delta (Homo sapiens (Human), UniProt P48730)
How it was run: as §1

CDK6/cyclinD3 = CDK6/cyclinD3 (Homo sapiens (Human), UniProt Q00534)
How it was run: as §1

GRK6, sequence (P43250 whole entry): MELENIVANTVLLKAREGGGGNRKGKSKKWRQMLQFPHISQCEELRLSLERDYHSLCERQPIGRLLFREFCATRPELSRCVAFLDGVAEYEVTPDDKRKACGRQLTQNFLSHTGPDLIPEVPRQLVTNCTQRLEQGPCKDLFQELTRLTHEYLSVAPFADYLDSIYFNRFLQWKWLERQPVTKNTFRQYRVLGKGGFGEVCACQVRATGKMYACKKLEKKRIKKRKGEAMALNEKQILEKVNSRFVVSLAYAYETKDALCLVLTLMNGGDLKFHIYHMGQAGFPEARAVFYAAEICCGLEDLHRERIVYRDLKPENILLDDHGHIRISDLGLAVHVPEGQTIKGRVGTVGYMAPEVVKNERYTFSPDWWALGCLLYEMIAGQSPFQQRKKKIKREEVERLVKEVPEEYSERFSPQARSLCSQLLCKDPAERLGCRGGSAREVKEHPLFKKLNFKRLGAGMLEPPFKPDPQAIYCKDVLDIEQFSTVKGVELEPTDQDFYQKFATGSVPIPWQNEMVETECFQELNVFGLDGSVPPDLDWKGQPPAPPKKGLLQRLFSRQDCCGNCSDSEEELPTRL
EphA5, sequence (P54756 25-1037): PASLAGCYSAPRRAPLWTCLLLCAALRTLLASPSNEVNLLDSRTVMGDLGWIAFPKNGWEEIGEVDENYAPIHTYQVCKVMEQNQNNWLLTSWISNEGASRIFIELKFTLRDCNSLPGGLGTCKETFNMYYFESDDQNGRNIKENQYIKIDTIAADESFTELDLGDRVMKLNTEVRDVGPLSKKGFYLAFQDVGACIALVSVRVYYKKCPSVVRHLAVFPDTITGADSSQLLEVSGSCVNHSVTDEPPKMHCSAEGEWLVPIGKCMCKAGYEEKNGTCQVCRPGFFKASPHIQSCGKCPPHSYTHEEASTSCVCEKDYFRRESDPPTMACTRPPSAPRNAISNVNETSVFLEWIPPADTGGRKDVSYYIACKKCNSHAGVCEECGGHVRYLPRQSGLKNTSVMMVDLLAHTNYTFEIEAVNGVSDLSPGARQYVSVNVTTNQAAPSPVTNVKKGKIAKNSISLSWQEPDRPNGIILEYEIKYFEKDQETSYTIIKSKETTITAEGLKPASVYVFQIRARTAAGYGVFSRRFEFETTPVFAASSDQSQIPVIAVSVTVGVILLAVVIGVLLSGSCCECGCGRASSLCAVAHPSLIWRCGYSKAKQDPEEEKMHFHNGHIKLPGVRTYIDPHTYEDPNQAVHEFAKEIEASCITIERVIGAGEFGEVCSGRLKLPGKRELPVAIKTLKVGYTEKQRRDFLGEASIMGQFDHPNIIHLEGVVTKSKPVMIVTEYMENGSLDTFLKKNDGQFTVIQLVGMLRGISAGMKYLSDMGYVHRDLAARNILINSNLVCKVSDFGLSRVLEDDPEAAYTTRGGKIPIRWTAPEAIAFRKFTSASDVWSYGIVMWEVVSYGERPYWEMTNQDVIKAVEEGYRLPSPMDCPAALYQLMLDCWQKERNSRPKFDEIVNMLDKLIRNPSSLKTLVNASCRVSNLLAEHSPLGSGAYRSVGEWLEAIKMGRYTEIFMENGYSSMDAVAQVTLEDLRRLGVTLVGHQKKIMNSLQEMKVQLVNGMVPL
TrkB, sequence (Q16620 32-822): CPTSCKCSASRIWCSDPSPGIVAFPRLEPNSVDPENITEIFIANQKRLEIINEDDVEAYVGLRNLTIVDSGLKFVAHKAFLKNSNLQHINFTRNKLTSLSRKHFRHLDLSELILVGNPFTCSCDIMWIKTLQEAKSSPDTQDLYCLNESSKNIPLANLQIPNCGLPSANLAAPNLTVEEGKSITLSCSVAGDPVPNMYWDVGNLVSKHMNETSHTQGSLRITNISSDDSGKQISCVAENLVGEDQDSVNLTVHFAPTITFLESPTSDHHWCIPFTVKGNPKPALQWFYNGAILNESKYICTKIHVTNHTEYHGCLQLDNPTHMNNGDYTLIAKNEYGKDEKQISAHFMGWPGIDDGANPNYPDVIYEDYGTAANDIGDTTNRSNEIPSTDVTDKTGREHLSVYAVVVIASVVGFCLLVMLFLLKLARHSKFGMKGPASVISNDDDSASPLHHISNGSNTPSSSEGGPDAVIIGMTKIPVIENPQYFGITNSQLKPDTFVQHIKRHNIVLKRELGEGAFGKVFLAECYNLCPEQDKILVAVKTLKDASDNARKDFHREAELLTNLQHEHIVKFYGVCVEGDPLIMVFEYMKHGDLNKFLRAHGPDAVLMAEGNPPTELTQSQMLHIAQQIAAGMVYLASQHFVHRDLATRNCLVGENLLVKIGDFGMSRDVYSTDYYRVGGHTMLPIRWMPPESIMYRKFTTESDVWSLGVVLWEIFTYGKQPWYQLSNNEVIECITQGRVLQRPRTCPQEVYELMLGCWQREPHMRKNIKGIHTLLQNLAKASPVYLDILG
PDK1, sequence (O15530 whole entry): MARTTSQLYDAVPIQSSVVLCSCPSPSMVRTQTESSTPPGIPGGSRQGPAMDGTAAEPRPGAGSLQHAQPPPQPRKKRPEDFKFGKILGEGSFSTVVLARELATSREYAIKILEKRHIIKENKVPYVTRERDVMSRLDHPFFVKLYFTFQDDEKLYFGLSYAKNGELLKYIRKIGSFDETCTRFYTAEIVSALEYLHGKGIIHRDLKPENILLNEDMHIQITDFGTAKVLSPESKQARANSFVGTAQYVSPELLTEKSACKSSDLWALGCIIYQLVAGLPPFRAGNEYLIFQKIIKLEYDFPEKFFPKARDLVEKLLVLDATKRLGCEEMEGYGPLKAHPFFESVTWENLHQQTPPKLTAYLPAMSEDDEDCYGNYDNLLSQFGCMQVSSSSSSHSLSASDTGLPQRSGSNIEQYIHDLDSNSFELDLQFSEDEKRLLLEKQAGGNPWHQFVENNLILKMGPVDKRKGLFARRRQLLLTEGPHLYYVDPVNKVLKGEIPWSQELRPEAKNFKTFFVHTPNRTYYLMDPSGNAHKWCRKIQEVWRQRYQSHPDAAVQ
CDK6/cyclinD3, sequence (Q00534 whole entry): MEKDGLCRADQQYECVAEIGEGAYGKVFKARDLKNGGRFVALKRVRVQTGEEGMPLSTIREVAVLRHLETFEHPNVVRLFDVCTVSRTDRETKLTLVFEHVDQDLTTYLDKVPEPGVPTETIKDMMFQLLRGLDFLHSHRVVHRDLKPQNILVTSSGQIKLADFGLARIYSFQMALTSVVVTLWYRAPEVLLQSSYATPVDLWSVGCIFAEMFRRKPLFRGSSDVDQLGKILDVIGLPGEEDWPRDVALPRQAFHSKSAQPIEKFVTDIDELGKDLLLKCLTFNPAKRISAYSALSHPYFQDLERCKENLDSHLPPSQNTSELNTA
CDK6/cyclinD3, sequence (P30281 whole entry partner): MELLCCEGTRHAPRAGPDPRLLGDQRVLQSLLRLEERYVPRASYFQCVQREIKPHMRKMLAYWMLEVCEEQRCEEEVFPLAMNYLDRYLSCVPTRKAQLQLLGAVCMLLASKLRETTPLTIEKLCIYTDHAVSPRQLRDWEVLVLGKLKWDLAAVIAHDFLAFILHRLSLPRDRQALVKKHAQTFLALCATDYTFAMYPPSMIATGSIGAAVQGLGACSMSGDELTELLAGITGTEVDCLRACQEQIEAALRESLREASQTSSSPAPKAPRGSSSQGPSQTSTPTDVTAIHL
SIK, sequence (P57059 whole entry): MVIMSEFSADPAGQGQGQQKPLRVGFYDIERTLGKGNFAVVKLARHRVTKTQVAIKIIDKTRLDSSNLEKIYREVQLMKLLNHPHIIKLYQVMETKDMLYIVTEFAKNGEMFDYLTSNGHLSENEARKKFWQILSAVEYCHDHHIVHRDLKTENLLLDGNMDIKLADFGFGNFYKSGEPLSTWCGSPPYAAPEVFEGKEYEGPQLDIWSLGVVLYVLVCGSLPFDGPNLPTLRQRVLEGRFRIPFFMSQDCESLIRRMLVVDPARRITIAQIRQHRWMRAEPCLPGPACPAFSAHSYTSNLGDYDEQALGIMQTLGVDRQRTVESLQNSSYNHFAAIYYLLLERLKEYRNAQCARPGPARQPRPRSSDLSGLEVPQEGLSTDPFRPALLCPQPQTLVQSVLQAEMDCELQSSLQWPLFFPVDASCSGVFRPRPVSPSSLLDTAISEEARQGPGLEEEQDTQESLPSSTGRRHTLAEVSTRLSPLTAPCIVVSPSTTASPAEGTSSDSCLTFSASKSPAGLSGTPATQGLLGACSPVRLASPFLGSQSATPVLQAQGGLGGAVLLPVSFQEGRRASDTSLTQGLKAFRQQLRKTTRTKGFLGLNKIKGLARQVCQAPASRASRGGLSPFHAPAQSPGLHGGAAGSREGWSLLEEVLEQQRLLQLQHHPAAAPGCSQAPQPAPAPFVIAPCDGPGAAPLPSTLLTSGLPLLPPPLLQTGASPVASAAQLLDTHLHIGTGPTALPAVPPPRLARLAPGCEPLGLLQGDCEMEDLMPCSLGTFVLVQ
DYRK2, sequence (Q92630 whole entry): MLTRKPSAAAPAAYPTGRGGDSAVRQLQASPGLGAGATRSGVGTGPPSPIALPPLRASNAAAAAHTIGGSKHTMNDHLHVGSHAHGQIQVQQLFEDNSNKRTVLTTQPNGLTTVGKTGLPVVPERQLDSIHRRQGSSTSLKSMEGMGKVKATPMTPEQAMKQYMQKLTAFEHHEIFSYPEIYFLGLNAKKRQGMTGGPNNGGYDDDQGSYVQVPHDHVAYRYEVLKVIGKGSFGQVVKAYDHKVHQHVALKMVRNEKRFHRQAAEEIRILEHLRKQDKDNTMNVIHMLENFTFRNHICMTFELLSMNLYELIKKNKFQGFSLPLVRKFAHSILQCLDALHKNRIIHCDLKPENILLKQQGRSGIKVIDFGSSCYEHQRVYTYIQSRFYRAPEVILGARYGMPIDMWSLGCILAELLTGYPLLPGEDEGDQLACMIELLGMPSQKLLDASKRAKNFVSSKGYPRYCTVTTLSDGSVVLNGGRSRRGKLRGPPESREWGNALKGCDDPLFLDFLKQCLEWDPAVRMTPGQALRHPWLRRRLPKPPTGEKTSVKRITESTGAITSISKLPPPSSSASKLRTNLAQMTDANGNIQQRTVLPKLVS

Compound	Avg. POC (GRK6) [POC]	Avg. POC (MEK1) [POC]	Avg. POC (MAPKAP-K2) [POC]	Avg. POC (Flt3) [POC]	Avg. POC (CHK2) [POC]	Avg. POC (CDK3/cyclinE) [POC]	Avg. POC (KDR) [POC]	Avg. POC (PDK1) [POC]	Avg. POC (IKKbeta) [POC]	Avg. POC (CSK) [POC]	Avg. POC (HIPK1) [POC]	Avg. POC (MLK1) [POC]	Avg. POC (VRK2) [POC]	Avg. POC (DAPK2) [POC]	Avg. POC (MINK) [POC]	Avg. POC (TAO1) [POC]	Avg. POC (Ron) [POC]	Avg. POC (PKCalpha) [POC]	Avg. POC (EphA5) [POC]	Avg. POC (CK2alpha2) [POC]	other results
Cc1c(-c2ccc(=O)n(C)c2)nn(-c2ccccc2)c1NC(=O)NC1CN(CC(F)(F)F)Cc2ccccc21 (stereo not drawn) [Example 26, 1-(4-methyl-3-(1-methyl-6-oxo-1,6-dihydropyridin-3-yl)-1-phenyl-1H-pyrazol-5-yl)-3-(2-(2,2,2-trifluoroethyl)-1,2,3,4-tetrahydroisoquinolin-4-yl)urea]	100.5	97	120	97.5	109	101.5	144.5	115	103.5	118.5	111	105.5	98	108.5	126.5	105.5	101	107.5	106.5	114	Avg. POC (Rse): 109.5 POC; Avg. POC (MARK1): 98.5 POC; Avg. POC (AKT3): 96 POC; Avg. POC (TrkB): 1.5 POC; Avg. POC (Pim-3): 98 POC; Avg. POC (IRR): 89 POC; Avg. POC (JNK3): 116 POC; Avg. POC (LOK): 109 POC; Avg. POC (Fes): 100.5 POC; Avg. POC (PhKgamma2): 108.5 POC; Avg. POC (JAK3): 112 POC; Avg. POC (SIK): 121.5 POC; Avg. POC (MSK2): 107.5 POC; Avg. POC (EphA1): 101 POC; Avg. POC (Abl2): 105 POC; Avg. POC (CDK1/cyclinB): 103 POC; Avg. POC (DYRK2): 103 POC; Avg. POC (CK1delta): 121.5 POC; Avg. POC (CDK6/cyclinD3): 104.5 POC
COCc1ccc2c(c1)C(NC(=O)Nc1c(C)c(-c3cnn(C)c3)nn1-c1ccccc1)COC2 (stereo not drawn) [Example 32, 1-(1′,4-dimethyl-1-phenyl-1H,1′H-[3,4′-bipyrazol]-5-yl)-3-(6-(methoxymethyl)isochroman-4-yl)urea]	101	102	117.5	115	112	102.5	129	101.5	105.5	123	115	104.5	100.5	103	124	100	107	110	104.5	104	Avg. POC (Rse): 105 POC; Avg. POC (MARK1): 98.5 POC; Avg. POC (AKT3): 77.5 POC; Avg. POC (TrkB): −0.5 POC; Avg. POC (Pim-3): 112 POC; Avg. POC (IRR): 109.5 POC; Avg. POC (JNK3): 104 POC; Avg. POC (LOK): 103.5 POC; Avg. POC (Fes): 112.5 POC; Avg. POC (PhKgamma2): 102.5 POC; Avg. POC (JAK3): 109.5 POC; Avg. POC (SIK): 97 POC; Avg. POC (MSK2): 99.5 POC; Avg. POC (EphA1): 114 POC; Avg. POC (Abl2): 121.5 POC; Avg. POC (CDK1/cyclinB): 104 POC; Avg. POC (DYRK2): 97.5 POC; Avg. POC (CK1delta): 135.5 POC; Avg. POC (CDK6/cyclinD3): 108 POC
